How the values were obtained:
Conditions in all cases: Compound concentration 10.0 uM
[1] = target: Sigma non-opioid intracellular receptor 1 (Homo sapiens, UniProt Q99720)
[2] = target: Muscarinic acetylcholine receptor M4 (Homo sapiens) (UniProt P08173)
[3] = target: Sodium-dependent dopamine transporter (Homo sapiens, UniProt Q01959)
[4] = target: 5-hydroxytryptamine receptor 1D (Homo sapiens) (UniProt P28221)
[5] = target: T1, 5-hydroxytryptamine receptor 1A (Homo sapiens) (UniProt P08908)
T1 sequence (whole entry): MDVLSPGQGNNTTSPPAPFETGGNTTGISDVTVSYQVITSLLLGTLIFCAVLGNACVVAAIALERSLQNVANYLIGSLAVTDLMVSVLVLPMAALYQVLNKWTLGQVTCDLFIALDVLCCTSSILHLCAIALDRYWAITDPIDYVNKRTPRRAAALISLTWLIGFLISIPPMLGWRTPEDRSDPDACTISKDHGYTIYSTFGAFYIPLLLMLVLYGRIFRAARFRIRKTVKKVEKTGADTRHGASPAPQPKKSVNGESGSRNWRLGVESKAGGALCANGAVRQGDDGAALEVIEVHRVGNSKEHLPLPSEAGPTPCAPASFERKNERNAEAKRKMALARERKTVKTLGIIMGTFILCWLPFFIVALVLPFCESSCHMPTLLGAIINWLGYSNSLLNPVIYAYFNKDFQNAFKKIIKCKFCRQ

[6] = target: T2, Alpha-1B adrenergic receptor (Homo sapiens) (UniProt P35368)
T2 sequence (whole entry): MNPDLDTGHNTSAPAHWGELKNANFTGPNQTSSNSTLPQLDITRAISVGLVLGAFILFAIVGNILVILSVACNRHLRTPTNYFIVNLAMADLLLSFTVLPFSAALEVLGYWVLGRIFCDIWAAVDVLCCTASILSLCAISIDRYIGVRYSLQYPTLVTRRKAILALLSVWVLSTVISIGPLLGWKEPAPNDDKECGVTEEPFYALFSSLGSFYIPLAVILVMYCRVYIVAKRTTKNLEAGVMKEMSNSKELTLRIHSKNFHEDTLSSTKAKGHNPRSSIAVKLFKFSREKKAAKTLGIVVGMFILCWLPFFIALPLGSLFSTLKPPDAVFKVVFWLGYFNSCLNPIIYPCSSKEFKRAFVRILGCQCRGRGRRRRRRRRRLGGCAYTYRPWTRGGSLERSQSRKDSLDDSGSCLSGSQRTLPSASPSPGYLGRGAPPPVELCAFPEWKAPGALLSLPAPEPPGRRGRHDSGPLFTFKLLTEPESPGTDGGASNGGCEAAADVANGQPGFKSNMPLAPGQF

[7] = target: Histamine H1 receptor (Homo sapiens) (UniProt P35367)
Sequence of Histamine H1 receptor (Homo sapiens) (P35367 whole entry): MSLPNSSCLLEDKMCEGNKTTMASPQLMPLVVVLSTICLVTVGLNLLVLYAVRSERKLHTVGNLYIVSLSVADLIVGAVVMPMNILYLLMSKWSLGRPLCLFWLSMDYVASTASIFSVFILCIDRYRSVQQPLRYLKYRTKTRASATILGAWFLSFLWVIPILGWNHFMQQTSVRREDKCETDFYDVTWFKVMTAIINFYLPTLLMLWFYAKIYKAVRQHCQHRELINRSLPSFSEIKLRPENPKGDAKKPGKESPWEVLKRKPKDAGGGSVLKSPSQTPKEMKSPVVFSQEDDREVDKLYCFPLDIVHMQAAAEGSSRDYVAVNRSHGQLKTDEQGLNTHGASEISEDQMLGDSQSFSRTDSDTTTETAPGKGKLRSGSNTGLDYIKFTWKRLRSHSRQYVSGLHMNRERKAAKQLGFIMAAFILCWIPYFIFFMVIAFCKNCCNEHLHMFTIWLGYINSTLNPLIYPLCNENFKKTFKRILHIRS

[8] = target: Alpha-1D adrenergic receptor (Homo sapiens) (UniProt P25100)
[9] = target: Kappa-type opioid receptor (Homo sapiens, UniProt P41145)
Sequence of Kappa-type opioid receptor (P41145 whole entry): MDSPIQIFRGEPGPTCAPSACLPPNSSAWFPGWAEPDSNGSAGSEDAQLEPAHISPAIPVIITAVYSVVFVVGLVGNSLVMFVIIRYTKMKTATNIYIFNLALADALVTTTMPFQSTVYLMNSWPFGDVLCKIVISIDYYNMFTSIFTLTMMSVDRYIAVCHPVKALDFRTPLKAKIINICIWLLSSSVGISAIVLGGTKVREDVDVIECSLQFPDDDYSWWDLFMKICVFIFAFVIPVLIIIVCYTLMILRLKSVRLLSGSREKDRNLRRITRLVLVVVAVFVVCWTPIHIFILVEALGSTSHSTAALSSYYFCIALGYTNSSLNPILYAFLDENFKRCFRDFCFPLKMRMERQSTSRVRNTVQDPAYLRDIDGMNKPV

[10] = target: Alpha-2A adrenergic receptor (Homo sapiens) (UniProt P08913)
Sequence of Alpha-2A adrenergic receptor (Homo sapiens) (P08913 whole entry): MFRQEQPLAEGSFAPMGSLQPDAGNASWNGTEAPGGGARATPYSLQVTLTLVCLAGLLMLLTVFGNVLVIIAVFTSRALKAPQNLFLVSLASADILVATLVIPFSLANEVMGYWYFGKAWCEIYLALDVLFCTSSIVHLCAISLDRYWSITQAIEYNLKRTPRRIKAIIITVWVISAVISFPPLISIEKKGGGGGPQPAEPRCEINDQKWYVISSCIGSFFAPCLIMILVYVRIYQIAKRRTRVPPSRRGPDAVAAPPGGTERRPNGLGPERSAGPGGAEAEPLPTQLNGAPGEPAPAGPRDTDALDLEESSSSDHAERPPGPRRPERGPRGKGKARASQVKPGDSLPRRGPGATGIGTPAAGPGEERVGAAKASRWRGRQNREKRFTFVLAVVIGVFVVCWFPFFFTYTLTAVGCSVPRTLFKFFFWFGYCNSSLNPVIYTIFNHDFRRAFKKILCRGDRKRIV

[11] = target: Sigma intracellular receptor 2 (Homo sapiens, UniProt Q5BJF2)
Sequence of Sigma intracellular receptor 2 (Q5BJF2 whole entry): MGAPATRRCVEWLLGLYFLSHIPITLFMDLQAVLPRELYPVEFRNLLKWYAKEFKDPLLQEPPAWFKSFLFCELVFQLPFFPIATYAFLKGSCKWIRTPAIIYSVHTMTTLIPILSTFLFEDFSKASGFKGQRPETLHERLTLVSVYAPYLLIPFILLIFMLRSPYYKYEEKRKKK

[12] = target: Histamine H3 receptor (Homo sapiens) (UniProt Q9Y5N1)
Sequence of Histamine H3 receptor (Homo sapiens) (Q9Y5N1 whole entry): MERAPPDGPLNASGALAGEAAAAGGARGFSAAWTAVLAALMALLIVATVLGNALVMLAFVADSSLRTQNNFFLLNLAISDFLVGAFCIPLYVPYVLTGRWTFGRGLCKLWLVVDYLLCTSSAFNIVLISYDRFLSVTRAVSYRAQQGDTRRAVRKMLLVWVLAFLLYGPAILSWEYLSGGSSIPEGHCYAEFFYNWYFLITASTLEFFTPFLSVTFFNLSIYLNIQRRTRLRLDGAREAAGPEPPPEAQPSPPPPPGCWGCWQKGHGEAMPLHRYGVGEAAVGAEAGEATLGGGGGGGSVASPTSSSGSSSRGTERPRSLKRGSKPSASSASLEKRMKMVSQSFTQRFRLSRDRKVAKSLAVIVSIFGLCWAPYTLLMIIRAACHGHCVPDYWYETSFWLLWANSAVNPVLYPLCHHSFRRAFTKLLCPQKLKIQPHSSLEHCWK

[13] = species: Rattus norvegicus
[14] = target: 5-hydroxytryptamine receptor 6 (Homo sapiens) (UniProt P50406)
Sequence of 5-hydroxytryptamine receptor 6 (Homo sapiens) (P50406 whole entry): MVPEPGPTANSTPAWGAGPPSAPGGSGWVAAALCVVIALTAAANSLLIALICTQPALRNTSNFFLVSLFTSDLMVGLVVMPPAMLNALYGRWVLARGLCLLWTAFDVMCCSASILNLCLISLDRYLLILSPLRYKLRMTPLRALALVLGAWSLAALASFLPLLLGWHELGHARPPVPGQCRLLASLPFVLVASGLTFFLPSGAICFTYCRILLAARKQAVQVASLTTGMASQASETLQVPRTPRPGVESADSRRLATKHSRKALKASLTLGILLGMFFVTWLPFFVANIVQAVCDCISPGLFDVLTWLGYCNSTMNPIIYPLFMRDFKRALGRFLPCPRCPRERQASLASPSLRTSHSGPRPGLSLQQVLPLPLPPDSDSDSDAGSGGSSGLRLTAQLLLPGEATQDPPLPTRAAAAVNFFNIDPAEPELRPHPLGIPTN

[15] = target: 5-hydroxytryptamine receptor 7 (Homo sapiens) (UniProt P34969)
Sequence of 5-hydroxytryptamine receptor 7 (Homo sapiens) (P34969 whole entry): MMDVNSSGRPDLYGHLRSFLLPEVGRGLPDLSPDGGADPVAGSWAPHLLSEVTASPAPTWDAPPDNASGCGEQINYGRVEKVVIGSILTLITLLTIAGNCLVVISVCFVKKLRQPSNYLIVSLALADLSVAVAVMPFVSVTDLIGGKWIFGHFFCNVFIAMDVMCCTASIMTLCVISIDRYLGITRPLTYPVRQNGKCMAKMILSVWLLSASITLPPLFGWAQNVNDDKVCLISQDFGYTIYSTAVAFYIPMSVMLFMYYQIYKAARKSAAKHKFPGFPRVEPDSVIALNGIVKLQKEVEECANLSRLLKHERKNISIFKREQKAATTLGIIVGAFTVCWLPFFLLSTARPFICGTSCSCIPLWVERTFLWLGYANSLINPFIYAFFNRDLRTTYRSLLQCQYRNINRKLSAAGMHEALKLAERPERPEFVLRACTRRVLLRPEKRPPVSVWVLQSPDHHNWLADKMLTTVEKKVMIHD

[16] = target: 5-hydroxytryptamine receptor 2A (Homo sapiens) (UniProt P28223)
[17] = target: T3, Muscarinic acetylcholine receptor M2 (Homo sapiens) (UniProt P08172)
T3 sequence (whole entry): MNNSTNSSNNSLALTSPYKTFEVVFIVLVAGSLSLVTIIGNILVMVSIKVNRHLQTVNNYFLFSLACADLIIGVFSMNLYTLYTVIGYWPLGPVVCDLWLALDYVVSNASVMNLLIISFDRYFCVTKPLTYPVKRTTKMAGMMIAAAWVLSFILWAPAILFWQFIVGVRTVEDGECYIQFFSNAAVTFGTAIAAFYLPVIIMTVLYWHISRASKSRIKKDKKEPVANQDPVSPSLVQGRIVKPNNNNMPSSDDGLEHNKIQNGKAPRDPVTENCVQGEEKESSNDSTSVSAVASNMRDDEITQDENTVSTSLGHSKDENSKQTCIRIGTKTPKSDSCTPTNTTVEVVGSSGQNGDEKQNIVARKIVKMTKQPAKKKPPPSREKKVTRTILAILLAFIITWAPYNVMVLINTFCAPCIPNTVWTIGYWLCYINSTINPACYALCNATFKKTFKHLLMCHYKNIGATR

[18] = target: Delta-type opioid receptor (Homo sapiens) (UniProt P41143)
[19] = target: Alpha-2B adrenergic receptor (Homo sapiens) (UniProt P18089)
Sequence of Alpha-2B adrenergic receptor (Homo sapiens) (P18089 whole entry): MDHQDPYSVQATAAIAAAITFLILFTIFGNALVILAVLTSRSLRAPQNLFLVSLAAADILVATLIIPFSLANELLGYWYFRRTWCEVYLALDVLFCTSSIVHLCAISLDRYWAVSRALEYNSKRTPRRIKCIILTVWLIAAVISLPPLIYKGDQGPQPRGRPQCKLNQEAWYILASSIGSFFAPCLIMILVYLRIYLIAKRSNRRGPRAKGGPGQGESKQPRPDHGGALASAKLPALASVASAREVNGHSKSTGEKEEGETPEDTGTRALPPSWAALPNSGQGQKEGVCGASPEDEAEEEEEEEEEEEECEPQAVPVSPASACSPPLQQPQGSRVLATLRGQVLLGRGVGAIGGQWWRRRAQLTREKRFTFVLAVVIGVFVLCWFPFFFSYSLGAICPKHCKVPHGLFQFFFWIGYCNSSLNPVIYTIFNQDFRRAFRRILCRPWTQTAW

[20] = target: T4, 5-hydroxytryptamine receptor 3A (Homo sapiens) (UniProt P46098)
T4 sequence (whole entry): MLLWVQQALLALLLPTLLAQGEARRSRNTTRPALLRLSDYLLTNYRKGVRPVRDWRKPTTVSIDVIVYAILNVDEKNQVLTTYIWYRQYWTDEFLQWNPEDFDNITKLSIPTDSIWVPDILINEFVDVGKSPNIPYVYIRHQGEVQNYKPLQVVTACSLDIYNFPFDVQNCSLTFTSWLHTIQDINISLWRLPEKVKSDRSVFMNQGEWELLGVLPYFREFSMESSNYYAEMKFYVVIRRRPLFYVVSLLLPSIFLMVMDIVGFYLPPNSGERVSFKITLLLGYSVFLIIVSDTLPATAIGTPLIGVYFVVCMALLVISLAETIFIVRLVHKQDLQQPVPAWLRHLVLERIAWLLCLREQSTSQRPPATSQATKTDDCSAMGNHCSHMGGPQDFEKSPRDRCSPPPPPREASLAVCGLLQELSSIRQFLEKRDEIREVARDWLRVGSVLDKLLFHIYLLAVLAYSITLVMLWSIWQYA

[21] = target: 5-hydroxytryptamine receptor 2B (Homo sapiens) (UniProt P41595)
Sequence of 5-hydroxytryptamine receptor 2B (Homo sapiens) (P41595 whole entry): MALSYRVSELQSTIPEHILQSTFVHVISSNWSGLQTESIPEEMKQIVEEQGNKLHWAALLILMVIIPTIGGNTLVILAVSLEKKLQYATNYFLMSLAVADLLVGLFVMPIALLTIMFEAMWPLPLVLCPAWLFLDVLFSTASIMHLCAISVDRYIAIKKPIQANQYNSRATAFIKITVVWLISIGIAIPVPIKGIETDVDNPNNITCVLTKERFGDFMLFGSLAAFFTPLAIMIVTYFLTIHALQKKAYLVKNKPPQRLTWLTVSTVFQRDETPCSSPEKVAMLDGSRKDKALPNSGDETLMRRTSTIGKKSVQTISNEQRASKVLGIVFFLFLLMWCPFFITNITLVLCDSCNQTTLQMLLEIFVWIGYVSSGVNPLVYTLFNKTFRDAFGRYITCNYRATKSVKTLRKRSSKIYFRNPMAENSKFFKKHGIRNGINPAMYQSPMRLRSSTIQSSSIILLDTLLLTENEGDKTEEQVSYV

Sequence of 5-hydroxytryptamine receptor 1D (Homo sapiens) (P28221 whole entry): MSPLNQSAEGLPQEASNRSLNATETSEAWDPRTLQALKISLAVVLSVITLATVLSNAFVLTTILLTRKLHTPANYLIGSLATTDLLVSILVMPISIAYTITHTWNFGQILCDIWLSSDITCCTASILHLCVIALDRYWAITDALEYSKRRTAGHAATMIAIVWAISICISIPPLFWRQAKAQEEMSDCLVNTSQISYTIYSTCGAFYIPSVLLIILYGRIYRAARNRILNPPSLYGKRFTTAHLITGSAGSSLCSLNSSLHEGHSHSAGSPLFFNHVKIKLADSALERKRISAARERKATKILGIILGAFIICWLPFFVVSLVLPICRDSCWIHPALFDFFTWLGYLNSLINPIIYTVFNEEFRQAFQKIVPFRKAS
Sequence of Muscarinic acetylcholine receptor M4 (Homo sapiens) (P08173 whole entry): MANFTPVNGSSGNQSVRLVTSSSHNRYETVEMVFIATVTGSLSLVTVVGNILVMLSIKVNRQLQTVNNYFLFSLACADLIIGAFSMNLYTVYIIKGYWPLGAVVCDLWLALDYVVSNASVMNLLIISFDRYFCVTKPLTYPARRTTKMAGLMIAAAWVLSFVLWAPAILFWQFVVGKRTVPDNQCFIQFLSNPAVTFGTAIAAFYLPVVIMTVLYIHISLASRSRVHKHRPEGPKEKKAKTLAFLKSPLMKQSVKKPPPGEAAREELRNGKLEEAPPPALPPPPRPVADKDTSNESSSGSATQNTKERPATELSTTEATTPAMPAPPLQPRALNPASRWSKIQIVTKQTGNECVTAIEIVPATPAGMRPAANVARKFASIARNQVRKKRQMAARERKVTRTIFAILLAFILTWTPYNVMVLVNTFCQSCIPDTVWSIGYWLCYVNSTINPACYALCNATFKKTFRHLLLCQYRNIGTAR
Sequence of Sigma non-opioid intracellular receptor 1 (Q99720 whole entry): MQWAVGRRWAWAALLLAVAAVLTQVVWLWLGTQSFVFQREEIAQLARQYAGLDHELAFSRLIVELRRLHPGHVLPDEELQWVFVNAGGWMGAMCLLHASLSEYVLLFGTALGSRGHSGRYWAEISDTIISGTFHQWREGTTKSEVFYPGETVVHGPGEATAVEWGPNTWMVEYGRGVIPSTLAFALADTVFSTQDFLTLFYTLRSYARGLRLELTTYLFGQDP

inhibition [1]	inhibition [2]	inhibition [3]	inhibition [4]	inhibition [5]	inhibition [6]	inhibition [7]	inhibition [8]	inhibition [9]	inhibition [10]	inhibition [11]	inhibition [12]	inhibition [13]	inhibition [14]	inhibition [15]	inhibition [16]	inhibition [17]	inhibition [18]	inhibition [19]	inhibition [20]	Compound	also measured
46.5%	-5.53%	13.4%	11.6%	22.2%	-5.2%	44%	8.3%	75.1%	8.68%	19%	10.8%	5.69%	14.3%	9.6%	-2.94%	9.54%	11.8%	44.8%	6.87%	CC(=O)Nc1ncc(CN2CCC[C@H](Cc3cc(C)nc(C)c3)C2)s1 [JNJ-65355394]	inhibition [21]: 6.7%
101%	8.78%	81.9%	14.5%	12.3%	-3.57%	44.2%	7.45%	17.9%	31.7%	59.6%	27.1%	11.2%	25.6%	2.58%	6.45%	8.65%	8.67%	59.1%	20.7%	CC(=O)Nc1nc(CN2CCC[C@H](Cc3cc(C)nc(C)c3)C2)cs1 [JNJ-73924149]	inhibition [21]: 17.9%

From ChEMBL document CHEMBL4800731, “Data for DCP probe JNJ-65355394” (2021)
